Laboratory results: the kinase profiling compilation of Christmann-Franck et al. (2016)

Assays:
Test in all cases: KINOMEscan competition binding
Conditions in all cases: compound 10.0 µM
ABL2 (human) = ABL2 (human) (UniProt P42684)
ANKK1 (human) = ANKK1 (human) (UniProt Q8NFD2)
AURKC (human) = AURKC (human) (UniProt Q9UQB9)
BLK (human) = BLK (human) (UniProt P51451)
BRSK2 (human) = BRSK2 (human) (UniProt Q8IWQ3)
CAMK1G (human) = CAMK1G (human) (UniProt Q96NX5)
CAMK4 (human) = CAMK4 (human) (UniProt Q16566)
CDK14 (human) = CDK14 (human) (UniProt O94921)
CIT (human) = CIT (human) (UniProt O14578)
CSNK1E (human) = CSNK1E (human) (UniProt P49674)
CSNK1G3 (human) = CSNK1G3 (human) (UniProt Q9Y6M4)
CaMK1 (human) = CaMK1 (human) (UniProt Q14012)
DAPK3 (human) = DAPK3 (human) (UniProt O43293)
[1] = tested on: EIF2AK4 KD2 (human), Q9P2K8 [S808G]
EPHA7 (human) = EPHA7 (human) (UniProt Q15375)
[2] = tested on: FLT3 (human), P36888 [N841I]
MAP3K3 (human) = MAP3K3 (human) (UniProt Q99759)
MAP3K4 (human) = MAP3K4 (human) (UniProt Q9Y6R4)
MAP4K5 (human) = MAP4K5 (human) (UniProt Q9Y4K4)
MAPK11 (human) = MAPK11 (human) (UniProt Q15759)
MELK (human) = MELK (human) (UniProt Q14680)
MYLK (human) = MYLK (human) (UniProt Q15746)
NEK5 (human) = NEK5 (human) (UniProt Q6P3R8)
NTRK1 (human) = NTRK1 (human) (UniProt P04629)
NUAK2 (human) = NUAK2 (human) (UniProt Q9H093)
PDPK1 (human) = PDPK1 (human) (UniProt O15530)
PIP4K2B (human) = PIP4K2B (human) (UniProt P78356)
PKN1 (human) = PKN1 (human) (UniProt Q16512)
PLK3 (human) = PLK3 (human) (UniProt Q9H4B4)
PRKCD (human) = PRKCD (human) (UniProt Q05655)
PTK2B (human) = PTK2B (human) (UniProt Q14289)
PTK6 (human) = PTK6 (human) (UniProt Q13882)
RIOK1 (human) = RIOK1 (human) (UniProt Q9BRS2)
STK35 (human) = STK35 (human) (UniProt Q8TDR2)
TLK1 (human) = TLK1 (human) (UniProt Q9UKI8)
TNIK (human) = TNIK (human) (UniProt Q9UKE5)
TNK1 (human) = TNK1 (human) (UniProt Q13470)
TNNI3K (human) = TNNI3K (human) (UniProt Q59H18)
TSSK1B (human) = TSSK1B (human) (UniProt Q9BXA7)
WEE2 (human) = WEE2 (human) (UniProt P0C1S8)

Sequence of NEK5 (human) (Q6P3R8 whole entry, looked up): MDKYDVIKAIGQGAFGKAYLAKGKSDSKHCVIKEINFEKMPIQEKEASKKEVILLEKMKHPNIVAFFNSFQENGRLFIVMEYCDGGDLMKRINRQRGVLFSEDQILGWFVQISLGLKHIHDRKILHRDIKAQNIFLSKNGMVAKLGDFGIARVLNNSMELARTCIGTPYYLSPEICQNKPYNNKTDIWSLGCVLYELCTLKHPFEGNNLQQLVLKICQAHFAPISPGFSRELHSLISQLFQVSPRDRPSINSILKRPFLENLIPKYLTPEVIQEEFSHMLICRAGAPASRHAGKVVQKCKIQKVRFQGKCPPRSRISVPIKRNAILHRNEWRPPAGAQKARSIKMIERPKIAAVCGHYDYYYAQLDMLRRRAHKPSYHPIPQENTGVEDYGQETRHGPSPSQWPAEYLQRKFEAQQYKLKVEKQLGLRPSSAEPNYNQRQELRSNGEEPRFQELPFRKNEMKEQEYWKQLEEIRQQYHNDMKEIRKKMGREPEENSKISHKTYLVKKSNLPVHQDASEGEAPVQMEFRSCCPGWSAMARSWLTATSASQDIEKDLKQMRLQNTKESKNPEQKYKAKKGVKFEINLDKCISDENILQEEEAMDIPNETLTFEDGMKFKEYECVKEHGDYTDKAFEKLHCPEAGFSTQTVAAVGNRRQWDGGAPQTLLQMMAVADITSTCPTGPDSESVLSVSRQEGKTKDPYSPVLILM
Sequence of TNNI3K (human) (Q59H18 whole entry, looked up): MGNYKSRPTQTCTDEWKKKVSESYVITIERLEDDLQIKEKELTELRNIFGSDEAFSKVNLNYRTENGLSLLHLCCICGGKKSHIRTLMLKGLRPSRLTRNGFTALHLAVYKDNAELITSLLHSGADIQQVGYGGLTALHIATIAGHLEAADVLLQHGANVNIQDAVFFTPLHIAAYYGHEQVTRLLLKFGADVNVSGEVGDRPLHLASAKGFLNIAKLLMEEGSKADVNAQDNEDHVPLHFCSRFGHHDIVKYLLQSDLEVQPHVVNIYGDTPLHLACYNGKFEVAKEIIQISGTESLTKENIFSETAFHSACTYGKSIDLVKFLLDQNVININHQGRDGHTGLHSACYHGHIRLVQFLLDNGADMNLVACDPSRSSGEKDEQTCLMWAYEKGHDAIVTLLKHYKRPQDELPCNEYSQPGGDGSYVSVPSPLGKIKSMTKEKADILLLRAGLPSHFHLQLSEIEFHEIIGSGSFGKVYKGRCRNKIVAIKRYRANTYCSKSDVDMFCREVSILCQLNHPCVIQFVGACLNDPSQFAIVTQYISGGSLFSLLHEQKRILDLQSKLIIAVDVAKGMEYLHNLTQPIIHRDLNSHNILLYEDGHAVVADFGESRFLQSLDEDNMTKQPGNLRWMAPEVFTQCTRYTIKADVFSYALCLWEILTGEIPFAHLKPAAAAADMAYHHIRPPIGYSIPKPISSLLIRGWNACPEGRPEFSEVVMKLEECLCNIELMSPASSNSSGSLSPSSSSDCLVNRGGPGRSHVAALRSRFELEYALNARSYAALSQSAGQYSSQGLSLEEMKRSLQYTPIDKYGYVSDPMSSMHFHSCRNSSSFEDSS
Sequence of TNIK (human) (Q9UKE5 whole entry, looked up): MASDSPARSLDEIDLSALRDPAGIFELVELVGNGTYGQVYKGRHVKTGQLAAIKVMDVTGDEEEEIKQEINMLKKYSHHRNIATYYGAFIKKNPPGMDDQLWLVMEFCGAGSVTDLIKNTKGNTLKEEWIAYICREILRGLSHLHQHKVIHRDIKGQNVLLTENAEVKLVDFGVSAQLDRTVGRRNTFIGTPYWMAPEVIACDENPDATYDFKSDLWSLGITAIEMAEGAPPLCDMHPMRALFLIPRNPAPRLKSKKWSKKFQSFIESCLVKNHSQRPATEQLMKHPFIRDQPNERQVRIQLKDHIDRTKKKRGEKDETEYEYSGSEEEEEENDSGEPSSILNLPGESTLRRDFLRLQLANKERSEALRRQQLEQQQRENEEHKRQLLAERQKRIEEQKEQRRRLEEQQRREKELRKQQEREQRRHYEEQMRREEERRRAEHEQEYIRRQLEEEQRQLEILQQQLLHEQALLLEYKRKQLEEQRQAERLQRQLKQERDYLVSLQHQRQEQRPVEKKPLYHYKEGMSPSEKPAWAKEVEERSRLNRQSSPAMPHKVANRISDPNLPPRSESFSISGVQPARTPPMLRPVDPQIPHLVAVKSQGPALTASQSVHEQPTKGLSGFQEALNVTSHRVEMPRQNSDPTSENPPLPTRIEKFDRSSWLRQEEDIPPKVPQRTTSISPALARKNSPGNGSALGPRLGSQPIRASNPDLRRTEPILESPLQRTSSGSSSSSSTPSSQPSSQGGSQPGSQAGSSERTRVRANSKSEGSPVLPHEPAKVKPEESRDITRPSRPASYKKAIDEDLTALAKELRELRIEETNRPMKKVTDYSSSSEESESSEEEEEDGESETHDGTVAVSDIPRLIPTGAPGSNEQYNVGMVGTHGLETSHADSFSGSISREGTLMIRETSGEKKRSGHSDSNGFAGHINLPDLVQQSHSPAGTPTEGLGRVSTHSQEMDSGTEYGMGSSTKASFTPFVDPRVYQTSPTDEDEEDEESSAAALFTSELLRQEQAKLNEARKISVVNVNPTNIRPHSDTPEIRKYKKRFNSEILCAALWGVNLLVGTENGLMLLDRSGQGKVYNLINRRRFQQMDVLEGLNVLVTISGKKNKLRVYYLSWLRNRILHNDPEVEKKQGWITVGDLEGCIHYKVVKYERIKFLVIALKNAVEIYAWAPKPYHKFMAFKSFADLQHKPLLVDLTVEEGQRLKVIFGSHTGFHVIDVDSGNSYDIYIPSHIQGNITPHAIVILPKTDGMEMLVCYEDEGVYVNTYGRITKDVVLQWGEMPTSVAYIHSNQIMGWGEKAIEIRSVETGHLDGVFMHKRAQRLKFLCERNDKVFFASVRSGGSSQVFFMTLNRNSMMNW
Sequence of CSNK1E (human) (P49674 whole entry, looked up): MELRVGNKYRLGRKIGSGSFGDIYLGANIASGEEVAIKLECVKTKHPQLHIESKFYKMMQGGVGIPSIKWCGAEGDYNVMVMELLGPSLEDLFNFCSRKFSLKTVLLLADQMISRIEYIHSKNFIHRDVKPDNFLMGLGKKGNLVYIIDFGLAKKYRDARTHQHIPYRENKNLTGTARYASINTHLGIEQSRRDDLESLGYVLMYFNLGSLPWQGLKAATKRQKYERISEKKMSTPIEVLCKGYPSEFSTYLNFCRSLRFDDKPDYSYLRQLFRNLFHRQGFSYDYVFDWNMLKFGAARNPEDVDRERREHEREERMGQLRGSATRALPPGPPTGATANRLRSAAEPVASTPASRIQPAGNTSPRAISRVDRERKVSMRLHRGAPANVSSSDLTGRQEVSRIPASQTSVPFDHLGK
Sequence of MAP4K5 (human) (Q9Y4K4 whole entry, looked up): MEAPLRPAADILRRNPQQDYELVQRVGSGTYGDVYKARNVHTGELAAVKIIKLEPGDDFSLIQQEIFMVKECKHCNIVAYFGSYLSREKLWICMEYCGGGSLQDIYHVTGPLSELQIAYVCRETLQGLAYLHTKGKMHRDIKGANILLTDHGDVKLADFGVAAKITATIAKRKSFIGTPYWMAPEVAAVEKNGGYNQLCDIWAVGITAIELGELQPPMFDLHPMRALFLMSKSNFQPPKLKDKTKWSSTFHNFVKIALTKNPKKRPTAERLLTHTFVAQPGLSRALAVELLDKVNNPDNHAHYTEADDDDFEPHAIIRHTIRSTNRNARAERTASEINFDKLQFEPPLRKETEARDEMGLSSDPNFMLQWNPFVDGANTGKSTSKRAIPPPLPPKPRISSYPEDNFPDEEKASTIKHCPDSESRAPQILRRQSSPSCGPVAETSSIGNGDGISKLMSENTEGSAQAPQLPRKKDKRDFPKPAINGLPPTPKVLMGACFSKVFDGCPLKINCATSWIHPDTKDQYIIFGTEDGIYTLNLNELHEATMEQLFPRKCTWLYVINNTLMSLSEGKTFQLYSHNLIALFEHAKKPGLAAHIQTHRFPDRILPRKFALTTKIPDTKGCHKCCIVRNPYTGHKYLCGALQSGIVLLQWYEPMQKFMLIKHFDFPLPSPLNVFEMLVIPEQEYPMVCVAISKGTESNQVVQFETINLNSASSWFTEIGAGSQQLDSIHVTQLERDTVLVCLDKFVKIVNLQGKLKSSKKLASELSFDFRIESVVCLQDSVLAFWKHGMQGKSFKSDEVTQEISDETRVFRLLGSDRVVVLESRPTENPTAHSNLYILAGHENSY
Sequence of BLK (human) (P51451 whole entry, looked up): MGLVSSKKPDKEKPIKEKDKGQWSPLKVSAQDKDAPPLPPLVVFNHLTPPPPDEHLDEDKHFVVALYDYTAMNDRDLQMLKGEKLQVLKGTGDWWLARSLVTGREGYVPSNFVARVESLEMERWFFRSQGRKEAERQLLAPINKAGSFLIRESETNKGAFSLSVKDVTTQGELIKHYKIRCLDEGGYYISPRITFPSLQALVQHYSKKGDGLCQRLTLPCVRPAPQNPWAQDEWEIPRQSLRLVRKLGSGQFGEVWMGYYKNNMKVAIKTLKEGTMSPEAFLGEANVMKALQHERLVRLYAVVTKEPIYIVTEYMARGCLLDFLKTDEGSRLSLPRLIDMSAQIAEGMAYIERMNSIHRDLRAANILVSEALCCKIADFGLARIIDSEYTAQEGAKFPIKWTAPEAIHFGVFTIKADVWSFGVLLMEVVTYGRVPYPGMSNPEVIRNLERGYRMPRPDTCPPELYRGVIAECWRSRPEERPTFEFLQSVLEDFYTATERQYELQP
Sequence of MAPK11 (human) (Q15759 whole entry, looked up): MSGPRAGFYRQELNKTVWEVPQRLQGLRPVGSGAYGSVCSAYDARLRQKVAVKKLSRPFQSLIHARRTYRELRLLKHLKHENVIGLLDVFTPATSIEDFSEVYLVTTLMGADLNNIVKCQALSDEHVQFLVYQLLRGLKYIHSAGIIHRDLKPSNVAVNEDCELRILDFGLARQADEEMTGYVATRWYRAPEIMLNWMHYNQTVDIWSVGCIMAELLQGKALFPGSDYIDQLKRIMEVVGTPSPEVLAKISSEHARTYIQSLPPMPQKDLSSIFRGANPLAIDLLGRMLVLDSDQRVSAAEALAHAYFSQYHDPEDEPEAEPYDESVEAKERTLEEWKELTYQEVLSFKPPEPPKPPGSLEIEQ

SMILES	kinase still bound, per cent of control (ABL2 (human))	kinase still bound, per cent of control (ANKK1 (human))	kinase still bound, per cent of control (AURKC (human))	kinase still bound, per cent of control (BLK (human))	kinase still bound, per cent of control (BRSK2 (human))	kinase still bound, per cent of control (CAMK1G (human))	kinase still bound, per cent of control (CAMK4 (human))	kinase still bound, per cent of control (CDK14 (human))	kinase still bound, per cent of control (CIT (human))	kinase still bound, per cent of control (CSNK1E (human))	kinase still bound, per cent of control (CSNK1G3 (human))	kinase still bound, per cent of control (CaMK1 (human))	kinase still bound, per cent of control (DAPK3 (human))	kinase still bound, per cent of control [1]	kinase still bound, per cent of control (EPHA7 (human))	kinase still bound, per cent of control [2]	kinase still bound, per cent of control (MAP3K3 (human))	kinase still bound, per cent of control (MAP3K4 (human))	kinase still bound, per cent of control (MAP4K5 (human))	kinase still bound, per cent of control (MAPK11 (human))	other results
OCCCNc1cc(-c2ccnc(Nc3cccc(Cl)c3)n2)ccn1	100%	100%	100%	100%	100%	100%	100%	100%	100%	100%	100%	100%	100%	100%	100%	100%	100%	100%	100%	100%	kinase still bound, per cent of control (MELK (human)): 100%; kinase still bound, per cent of control (MYLK (human)): 100%; kinase still bound, per cent of control (NEK5 (human)): 100%; kinase still bound, per cent of control (NTRK1 (human)): 100%; kinase still bound, per cent of control (NUAK2 (human)): 100%; kinase still bound, per cent of control (PDPK1 (human)): 100%; kinase still bound, per cent of control (PIP4K2B (human)): 100%; kinase still bound, per cent of control (PKN1 (human)): 100%; kinase still bound, per cent of control (PLK3 (human)): 100%; kinase still bound, per cent of control (PRKCD (human)): 100%; kinase still bound, per cent of control (PTK2B (human)): 100%; kinase still bound, per cent of control (PTK6 (human)): 100%; kinase still bound, per cent of control (RIOK1 (human)): 100%; kinase still bound, per cent of control (STK35 (human)): 100%; kinase still bound, per cent of control (TLK1 (human)): 100%; kinase still bound, per cent of control (TNIK (human)): 100%; kinase still bound, per cent of control (TNK1 (human)): 100%; kinase still bound, per cent of control (TNNI3K (human)): 100%; kinase still bound, per cent of control (TSSK1B (human)): 100%; kinase still bound, per cent of control (WEE2 (human)): 100%
Cc1ccc(NC(=O)c2cccc(C(C)(C)C#N)c2)cc1Nc1ccc2ncn(C)c(=O)c2c1	12%	100%	100%	1%	100%	100%	100%	100%	0.05%	100%	100%	87%	85%	85%	84%	62%	100%	100%	59%	0%	kinase still bound, per cent of control (MELK (human)): 100%; kinase still bound, per cent of control (MYLK (human)): 98%; kinase still bound, per cent of control (NEK5 (human)): 33%; kinase still bound, per cent of control (NTRK1 (human)): 98%; kinase still bound, per cent of control (NUAK2 (human)): 100%; kinase still bound, per cent of control (PDPK1 (human)): 100%; kinase still bound, per cent of control (PIP4K2B (human)): 100%; kinase still bound, per cent of control (PKN1 (human)): 100%; kinase still bound, per cent of control (PLK3 (human)): 100%; kinase still bound, per cent of control (PRKCD (human)): 89%; kinase still bound, per cent of control (PTK2B (human)): 100%; kinase still bound, per cent of control (PTK6 (human)): 94%; kinase still bound, per cent of control (RIOK1 (human)): 100%; kinase still bound, per cent of control (STK35 (human)): 75%; kinase still bound, per cent of control (TLK1 (human)): 100%; kinase still bound, per cent of control (TNIK (human)): 3.4%; kinase still bound, per cent of control (TNK1 (human)): 100%; kinase still bound, per cent of control (TNNI3K (human)): 15%; kinase still bound, per cent of control (TSSK1B (human)): 79%; kinase still bound, per cent of control (WEE2 (human)): 100%
